Reference: patent US20240252695A9, “RADIOLABELED ETHER DENDRIMER CONJUGATES FOR PET IMAGING AND RADIOTHERAPY” (Ashvattha Therapeutics, Inc., priority 2020, published 2024)

System: reactive microglia
Experiment: PET/CT imaging of neuroinflammation in 5×FAD transgenic mice vs wild type
Assay type: in vivo, mouse
Details: 3.75 months of age
Text: To further evaluate the ability of ^18F-OP-801 to image neuroinflammation in neurogenerative diseases, the 5×FAD transgenic mouse model was used. 5×FAD transgenic mice (B6SJL-Tg (APPSwFlLon,PSEN1*M146L*L286V)6799Vas) expressed human APP and PSEN1 transgenes developing amyloid plaque within a few months after birth and previous studies with TSPO PET radiotracers have only been able to detect neuroinflammation around 6 months (˜26 weeks) of age with a high TPSO affinity radiotracer, ^18F-GE180. 5×FAD female mice and age matched controls were used at 3.75 months of age to evaluate ^18F-OP-801 compared to the TPSO radiotracer, ^18F-GE180. ^18F-OP-801 ([…]) was injected as an IV bolus into wild type (n=7) and 5×FAD females (n=12) at 3.75 months of age. ^18F-GE180 (150-250 μCi) was administered to the 5×FAD transgenic (n=5) and wild type (n=4) female mice at 3.75 months of age. Static 10-minute PET/CT images were acquired at 50-60 minutes post-injection.

**Q.** With CCN(CC)C(=O)[C@H]1CCCc2c1c1c(OC)cccc1n2CC[18F] [^18F-GE180] as the compound, how does the “PET signal in 5×FAD mice compared to wild type mice” value (50-60 minutes post-injection) read?
**A.** Its value is “minimal PET signal differences”.

**Q.** And the “TG-to-WT ratio, Cortex” value (5xFAD mice)?
**A.** The value was 1.21.

**Q.** What about the “TG-to-WT ratio, Hippocampus” value (5xFAD mice) of the same compound?
**A.** The value was 1.24.

**Q.** What about the “TG-to-WT ratio, Whole Brain” value (5xFAD mice) of the same compound?
**A.** Its value is 1.21.
